Like-named read-outs stand apart in the source and are kept apart here.
Experiments:
[1] = target: T1, HCV NS3/4A protease D168A variant (Hepatitis C virus genotype 1a, UniProt P27958, C1185S/D1194A); experiment: biochemical; format: biochemical
T1 construct: His-tag (cleaved yes); made in house; host or cells: Escherichia coli BL21(DE3), PET28a vector
Method in brief: (§1)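 Inhibitors pre-incubated 1 h at room temperature with 2 nM NS3/4A protease (GT1a C159S or D168A) in 50 mM Tris, 5% glycerol, 10 mM DTT, 0.6 mM LDAO, 4% DMSO, pH 7.5. Km from global Michaelis-Menten fit of inner-filter-corrected initial velocities; three independent data sets per inhibitor and construct.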

[2] = system: HCV NS3/4A protease D168A variant; experiment: biochemical; format: biochemical, Hepatitis C virus; details: Table S1, value in parentheses
Method in brief: as §1

[3] = target: T2, wild-type HCV NS3/4A protease (GT1a) (Hepatitis C virus genotype 1a, UniProt P27958, C1185S); experiment: biochemical; format: biochemical
T2 construct: His-tag (cleaved yes); made in house; host or cells: Escherichia coli BL21(DE3), PET28a vector
Method in brief: as §1

[4] = target: HCV NS3/4A protease GT3 (Hepatitis C virus genotype 3a, UniProt Q81495); experiment: biochemical
[5] = rcm bond, 70.0 °C, 6.0 h
[6] = rcm bond, 15-membered ring, Zhan 1B, 1,2-DCE, 70.0 °C

T1 sequence (P27958 1027-1208 C1185S/D1194A): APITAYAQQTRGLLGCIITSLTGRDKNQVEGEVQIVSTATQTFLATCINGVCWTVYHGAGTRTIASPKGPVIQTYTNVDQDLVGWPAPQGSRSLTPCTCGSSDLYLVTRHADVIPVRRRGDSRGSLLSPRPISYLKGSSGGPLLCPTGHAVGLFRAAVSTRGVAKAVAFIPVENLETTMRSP
T2 sequence (P27958 1027-1208 C1185S): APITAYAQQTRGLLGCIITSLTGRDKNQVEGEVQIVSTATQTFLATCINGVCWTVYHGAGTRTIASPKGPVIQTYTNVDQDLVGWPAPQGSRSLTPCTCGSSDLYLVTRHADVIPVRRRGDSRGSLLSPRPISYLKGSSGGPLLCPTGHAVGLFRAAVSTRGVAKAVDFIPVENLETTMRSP
HCV NS3/4A protease GT3, sequence (Q81495 1033-1214): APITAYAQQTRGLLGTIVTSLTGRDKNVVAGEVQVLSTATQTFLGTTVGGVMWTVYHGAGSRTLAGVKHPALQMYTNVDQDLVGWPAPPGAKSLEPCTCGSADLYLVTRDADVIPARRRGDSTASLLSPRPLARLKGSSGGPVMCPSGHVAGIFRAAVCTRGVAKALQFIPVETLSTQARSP
HCV NS3/4A protease GT3, sequence (Q81495 1664-1717): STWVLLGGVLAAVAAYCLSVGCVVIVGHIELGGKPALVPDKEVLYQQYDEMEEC

## COc1ccc2nc(C)c(O[C@@H]3C[C@H]4C(=O)N[C@]5(C(=O)NS(=O)(=O)C6(C)CC6)C[C@H]5/C=C\CCCCC[C@H](NC(=O)OC5(C)CCCC5)C(=O)N4C3)nc2c1 [AJ-74, 1-Methylcyclopentyl ((2R,6S,13aS,14aR,16aS, Z)-2-((7-methoxy-3-methylquinoxalin-2-yl)oxy)-14a-(((1-methylcyclopropyl)sulfonyl)carbamoyl)-5,16-dioxo-1,2,3,5,6,7,8,9,10,11,13a,14,14a,15,16,16a-hexadecahydrocyclopropa[e]pyrrolo[1,2-a][1,4]diazacyclopentadecin-6-yl) carbamate]
[1]
  Ki: 16 ± 1.2 nM
[2]
  Fold Change of D168A Ki with respect to GT1a wild-type: (9) fold
[3]
  Ki: 1.78 ± 0.3 nM
[4]
  Ki: 151 ± 11 nM

## COc1ccc2nc(C(F)(F)F)c(O[C@@H]3C[C@H]4C(=O)N[C@]5(C(=O)NS(=O)(=O)C6(C)CC6)C[C@H]5/C=C\CCCCC[C@H](NC(=O)OC(C)(C)C)C(=O)N4C3)nc2c1 [CH-24, tert-Butyl ((2R,6S,13aS,14aR,16aS, Z)-2-((7-methoxy-3-(trifluoromethyl)quinoxalin-2-yl)oxy)-14a-(((1-methylcyclopropyl)sulfonyl)carbamoyl)-5,16-dioxo-1,2,3,5,6,7,8,9,10,11,13a,14,14a,15,16,16a-hexadecahydrocyclopropa[e]pyrrolo[1,2-a] [1,4]diazacyclopentadecin-6-yl) carbamate]
[5]; from C=CCCCCC[C@H](NC(=O)OC(C)(C)C)C(=O)N1C[C@H](Oc2nc3cc(OC)ccc3nc2C(F)(F)F)C[C@H]1C(=O)N[C@]1(C(=O)NS(=O)(=O)C2(C)CC2)C[C@H]1C=C, Zhan 1B, 1,2-dichloroethane, 5.73 mM
  ring closure, yield of all isomers: 73%
[1]
  Ki: 118 ± 13 nM
[3]
  Ki: 5.77 ± 1.78 nM

## COc1ccc2nc(C)c(O[C@@H]3C[C@H]4C(=O)N[C@]5(C(=O)NS(=O)(=O)C6(C)CC6)C[C@H]5/C=C\CCCCC[C@H](NC(=O)OC(C)(C)C)C(=O)N4C3)nc2c1 [JZ01-15, tert-Butyl ((2R,6S,13aS,14aR,16aS, Z)-2-((7-methoxy-3-methylquinoxalin-2-yl)oxy)-14a-(((1-methylcyclopropyl)sulfonyl)carbamoyl)-5,16-dioxo-1,2,3,5,6,7,8,9,10,11,13a,14,14a,15,16,16a-hexadecahydrocyclopropa[e]pyrrolo[1,2-a] [1,4]diazacyclopentadecin-6-yl) carbamate]
[5]; from C=CCCCCC[C@H](NC(=O)OC(C)(C)C)C(=O)N1C[C@H](Oc2nc3cc(OC)ccc3nc2C)C[C@H]1C(=O)N[C@]1(C(=O)NS(=O)(=O)C2(C)CC2)C[C@H]1C=C, Zhan 1B, 1,2-dichloroethane, 4.95 mM
  ring closure, yield of all isomers: 70%
[5]; from C=CCCCCC[C@H](NC(=O)OC(C)(C)C)C(=O)N1C[C@H](Oc2nc3cc(OC)ccc3nc2C)C[C@H]1C(=O)N[C@]1(C(=O)NS(=O)(=O)C2(C)CC2)C[C@H]1C=C, Zhan 1b catalyst, 1,2-DCE, 4.95 mM
  ring closure, yield of all isomers: 70%
[1]
  Ki: 52 ± 2.4 nM
[2]
  Fold Change of D168A Ki with respect to GT1a wild-type: (14) fold
[3]
  Ki: 3.6 ± 0.44 nM

## COc1ccc2nc(C)c(O[C@@H]3C[C@H]4C(=O)N[C@]5(C(=O)NS(=O)(=O)C6(C)CC6)C[C@H]5/C=C\CCCCC[C@H](NC(=O)OC5(C)CCCC5)C(=O)N4C3)nc2c1 [JZ01-19]
[1]; Table 2, read-out: Ki D168A
  Ki: 36 ± 1.8 nM
[1]; Table S1, Morrison equation fit, read-out: Ki D168A
  Ki: 36 ± 1.8 nM
[1]
  fold increase in potency against D168A compared to the parent compound: ~3 fold
[2]; listed as P4-3
  Fold Change of D168A Ki with respect to GT1a wild-type: (32) fold
[3]; Table 2, read-out: Ki WT (GT1a)
  Ki: 1.13 ± 0.22 nM
[3]; Table S1, Morrison equation fit, read-out: Ki GT1a WT
  Ki: 1.13 ± 0.22 nM
[4]; Table 2, read-out: Ki GT3
  Ki: 121 ± 16 nM

## COc1ccc2nc(C)c(O[C@@H]3C[C@H]4C(=O)N[C@]5(C(=O)NS(=O)(=O)C6(C)CC6)C[C@H]5/C=C\CCCCC[C@H](NC(=O)OC5CCCCC5)C(=O)N4C3)nc2c1 [NR03-67, Cyclohexyl ((2R,6S,13aS,14aR,16aS,Z)-2-((7-methoxy-3-methylquinoxalin-2-yl)oxy)-14a-(((1-methylcyclopropyl)sulfonyl)carbamoyl)-5,16-dioxo-1,2,3,5,6,7,8,9,10,11,13a,14,14a,15,16,16a-hexadecahydrocyclopropa[e]pyrrolo[1,2-a][1,4]diazacyclopentadecin-6-yl)carbamate]
[1]
  Ki: 12.7 ± 1.2 nM
  fold increase in potency against D168A compared to the parent compound: ~3 fold
[2]
  Fold Change of D168A Ki with respect to GT1a wild-type: (14) fold
[3]
  Ki: 0.94 ± 0.25 nM
[4]
  Ki: 145 ± 7 nM

## COc1ccc2nc(C)c(O[C@@H]3C[C@H]4C(=O)N[C@]5(C(=O)NS(=O)(=O)C6(C)CC6)C[C@H]5/C=C\CCCCC[C@H](NC(=O)O[C@@H]5C[C@@H]6C[C@@H]6C5)C(=O)N4C3)nc2c1 [NR03-77, (1R,3R,5S)-Bicyclo[3.1.0]hexan-3-yl ((2R,6S,13aS,14aR,16aS,Z)-2-((7-methoxy-3-methylquinoxalin-2-yl)oxy)-14a-(((1-methylcyclopropyl)sulfonyl)carbamoyl)-5,16-dioxo-1,2,3,5,6,7,8,9,10,11,13a,14,14a,15,16,16a-hexadecahydrocyclopropa[e]pyrrolo[1,2-a][1,4]diazacyclopentadecin-6-yl)carbamate]
[1]
  Ki: 2.3 ± 0.7 nM
  fold increase in potency against D168A compared to the parent compound: 26 fold
[1]; compared to grazoprevir
  fold more potent than grazoprevir towards D168A: 20 fold
[2]
  Fold Change of D168A Ki with respect to GT1a wild-type: (4) fold
[3]
  Ki: 0.54 ± 0.2 nM
[3]; compared to P4-2
  fold improvement in potency against WT compared to P4-2: ~3 fold
[4]
  Ki: 38.6 ± 1.5 nM

## COc1ccc2nc(C(F)(F)F)c(O[C@@H]3C[C@H]4C(=O)N[C@]5(C(=O)NS(=O)(=O)C6(C)CC6)C[C@H]5/C=C\CCCCC[C@H](NC(=O)OC5(C(F)(F)F)CCCC5)C(=O)N4C3)nc2c1 [NR04-01, 1-(Trifluoromethyl)cyclopentyl ((2R,6S,13aS,14aR,16aS,Z)-2-((7-methoxy-3-(trifluoromethyl)quinoxalin-2-yl)oxy)-14a-(((1-methylcyclopropyl)sulfonyl)carbamoyl)-5,16-dioxo-1,2,3,5,6,7,8,9,10,11,13a,14,14a,15,16,16a-hexadecahydrocyclopropa[e]pyrrolo[1,2-a][1,4]diazacyclopentadecin-6-yl)carbamate]
[1]
  Ki: 20.4 ± 0.9 nM
[3]
  Ki: 5.66 ± 0.5 nM
[4]
  Ki: 414 ± 23 nM

## tert-Butyl ((2R,6S,13aS,14aR,16aS, Z)-2-((7-methoxy-3-(trifluoromethyl) quinoxalin-2-yl) oxy)-14a-(((1-methylcyclopropyl) sulfonyl) carbamoyl)-5,16-dioxo-1,2,3,5,6,7,8,9,10,11,13a,14,14a,15,16,16a-hexadecahydrocyclopropa[e]pyrrolo[1,2-a] [1,4] diazacyclopentadecin-6-yl) carbamate
[6]; 5.73 mM
  ring closure, isolated yield: 73%

## tert-Butyl ((2R,6S,13aS,14aR,16aS, Z)-2-((7-methoxy-3-methylquinoxalin-2-yl) oxy)-14a-(((1-methylcyclopropyl) sulfonyl) carbamoyl)-5,16-dioxo-1,2,3,5,6,7,8,9,10,11,13a,14,14a,15,16,16a-hexadecahydrocyclopropa[e]pyrrolo[1,2-a] [1,4] diazacyclopentadecin-6-yl) carbamate
[6]; 4.95 mM
  ring closure, isolated yield: 70%

From US12441762B2, “Hepatitis c virus NS3/4A protease inhibitors” (priority 2019, dated 2025)
